Read-outs that look alike come from different tables or passages of the source.
Assays:
[1] = test system: shikimate accumulation in Col-0 and dhs mutants; assay: Shikimate content with and without Tyr and/or glyphosate treatment; type: in vivo, Arabidopsis thaliana; conditions: 250 µM glyphosate, 2 days; for increase of shikimate accumulation after treatment: plants grown with 300 µM Tyr
Procedure: Approximately 50–80 mg of fully expanded mature leaves were pooled from multiple plants at the same developmental stages and ground in 800 µL of extraction buffer (v/v 2:1 of methanol and chloroform with 2 µg/mL isovitexin [Millipore-Sigma], 100 µM norvaline [Thermo Fisher Scientific], and 1.25 µg/mL Tocol [Matreya LLC, State College, PA, USA] for internal standards for soluble metabolite analysis by LC–MS and GC–MS and tocopherol analysis by GC–MS, respectively), using 1600 MiniG Tissue Homogenizer (SPEX SamplePrep, Metuchen, USA) and 3-mm glass beads. After adding 600 µL of H2O and then 250 µL of chloroform, polar phase containing amino acids, and non‐polar phase containing tocopherols were separated by centrifugation, dried in new tubes. To detect Trp and AAA-derived metabolites, LC–MS analysis was carried out as previous described with some modification ([Alseekh et al., 2015]). The dried metabolites were resuspended in 70 µL of 80% LC–MS-grade methanol. Two microliters of the sample was injected onto a HSS T3 C18 reversed phase column (100 × 2.1 mm i.d., 1.8-μm particle size; Waters, Milford, CT, USA) and eluted using a 20-min gradient comprising 0.1% formic acid in LC–MS-grade water (solvent A) and 0.1% formic acid in LC–MS-grade acetonitrile (solvent B) at a flow rate of 0.4 mL/min and column temperature of 40°C. The binary linear gradient with following ratios of solvent B was used: 0–1 min, 1%; 1–13 min, 1%–35%; 13–14.5 min, 35%–70%; 14.5–15.5 min, 70%–99%, 15.5–17 min, 99%; 17–17.5 min, 99%–[…]; 17.5–20 min, 1%. The spectra were recorded using full scan mode of negative ion detection, covering a mass range from m/z 100 to 1,500. The resolution was set to 25,000 and the maximum scan time was set to 250 ms. The sheath gas was set to a value of 60, while the auxiliary gas was set to 35. The transfer capillary temperature was set to 150°C, while the heater temperature was adjusted to 300°C. The spray voltage was fixed at 3 kV, with a capillary voltage and a skimmer voltage of 25 and 15 V, respectively. Retention times, MS spectra, and associated peak intensities were extracted from the raw files using the Xcalibur software (Thermo Fisher Scientific). […] For anthocyanin quantification, the polar phase isolated for amino acid analysis was diluted 10 times with water in a new tube. […] Shikimate level was spectrometrically determined based on previous literatures ([Shaner et al., 2005]; [Sharkhuu et al., 2014]). […] After stopping the reaction by adding 100 µL of a termination solution containing 0.6 N sodium hydroxide and 0.22 M sodium sulfite, the absorption at 380 nm was immediately measured with the microplate reader. Shikimate concentration was determined by comparing with a dilution series of the shikimate standards.

[2] = test system: root growth of Arabidopsis Col-0 and dhs mutants; assay: Chemical feeding experiment, root length of 10-day-old seedlings; type: in vivo, Arabidopsis thaliana; conditions: for IC50: Arabidopsis thaliana
Procedure: Chemical feeding experiments were carried out as described previously ([de Oliveira et al., 2019]) with some modifications. Seedlings were grown on agar plates containing 0.5 MS with 1% sucrose, 0.8% agar, and 2.5 mM MES at pH 5.7 in the growth chamber where we grew other plants in soil. AAAs and/or shikimate were added to autoclaved media after cooling down to temperatures below 55°C. Plants were grown on the same plate side by side to minimize environmental effects, and multiple plates were prepared to obtain replications. Root lengths of 10-day-old seedlings were quantified by ImageJ.

[3] = test system: AthDHS1 and AthDHS2 mixtures; assay: DHS assay using mixtures of AthDHS1 and AthDHS2 recombinant enzymes; type: biochemical, Arabidopsis thaliana; conditions: 1 mM effector; molar ratios 0, 0.25, 0.5, 0.75, 1
Procedure: Next, we thought that the presence of non-inhibited DHS isoforms (e.g. AthDHS1) may affect the AAA sensitivity of AthDHS2, given that AthDHSs are known to function as tetrameric or dimeric forms ([Suzich et al., 1985]; [Pinto et al., 1986]; [Webby et al., 2005]). To test this, the recombinant enzymes of AAA non-inhibited AthDHS1 and AAA-inhibited AthDHS2 were mixed with different ratios (0, 0.25, 0.5, 0.75, and 1) and DHS activity assays were conducted with different inhibitors. Based on the kinetic parameters and the regulatory behaviors of individual AthDHSs, the expected level of DHS activity was first calculated and plotted (dotted lines in Figure 5, D, see the “Materials and methods” section). […] Similar results were obtained for the AthDHS2 and AthDHS3 mixture (Figure 5, E).
Unless otherwise noted, DHS enzymatic activity was monitored as previously described ([Liu et al., 2008]), with several optimizations for high-throughput assays with eight-strip PCR tubes and a thermal cycler. The enzyme solution (7.7 µL) containing 50 mM HEPES (pH 7.4) was preincubated with an effector molecule(s) at room temperature for 10 min. For assays using recombinant protein and enzyme fraction isolated from plant leaves, 0.01–0.05 µg and approximately 50 µg of proteins were used, respectively. After adding 0.5 µL of 0.1 M DTT, the samples were further incubated at room temperature for 15 min. […] The enzyme reaction was started by adding 6.8 µL of the substrate solution, then incubated at 37°C for 20 min, and terminated by adding 30 µL of 0.6 M trichloroacetic acid. After brief centrifugation, 5 µL of 200 mM NaIO4 (sodium meta-periodate) in 9 N H3PO4 was added to oxidize the enzymatic product and incubate at 25°C for 20 min. […] The absorbance of the pink supernatant was read at 549 nm with the microplate reader (Infinite 200 PRO, TECAN, Männedorf, Switzerland) to calculate DAHP production with the molar extinction coefficient at 549 nm (ε = 549 nm) of 4.5 × 10^4/M/cm. […]

AthDHS3 = AthDHS3 (Arabidopsis thaliana, UniProt Q9SK84); assay: DHS enzymatic activity assay with recombinant AthDHS3; type: biochemical; conditions: for effect on AthDHS3 activity (in words): 1 mM effector
Chain of AthDHS3 (Q9SK84 entry or part of it): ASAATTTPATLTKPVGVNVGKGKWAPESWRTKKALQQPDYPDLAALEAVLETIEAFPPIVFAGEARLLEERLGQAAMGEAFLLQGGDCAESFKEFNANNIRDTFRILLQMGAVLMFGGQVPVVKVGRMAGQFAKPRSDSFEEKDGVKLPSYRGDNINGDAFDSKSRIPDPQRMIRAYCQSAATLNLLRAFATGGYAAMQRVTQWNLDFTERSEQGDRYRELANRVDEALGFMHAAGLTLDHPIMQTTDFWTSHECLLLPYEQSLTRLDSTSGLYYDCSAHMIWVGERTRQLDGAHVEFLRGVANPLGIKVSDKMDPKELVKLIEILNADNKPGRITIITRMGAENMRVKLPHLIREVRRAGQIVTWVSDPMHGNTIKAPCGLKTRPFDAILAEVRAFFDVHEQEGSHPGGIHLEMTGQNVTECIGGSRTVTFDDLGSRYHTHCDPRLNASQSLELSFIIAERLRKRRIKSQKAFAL
Procedure: (§1) Unless otherwise noted, DHS enzymatic activity was monitored as previously described ([Liu et al., 2008]), with several optimizations for high-throughput assays with eight-strip PCR tubes and a thermal cycler. The enzyme solution (7.7 µL) containing 50 mM HEPES (pH 7.4) was preincubated with an effector molecule(s) at room temperature for 10 min. For assays using recombinant protein and enzyme fraction isolated from plant leaves, 0.01–0.05 µg and approximately 50 µg of proteins were used, respectively. After adding 0.5 µL of 0.1 M DTT, the samples were further incubated at room temperature for 15 min. […] The enzyme reaction was started by adding 6.8 µL of the substrate solution, then incubated at 37°C for 20 min, and terminated by adding 30 µL of 0.6 M trichloroacetic acid. After brief centrifugation, 5 µL of 200 mM NaIO4 (sodium meta-periodate) in 9 N H3PO4 was added to oxidize the enzymatic product and incubate at 25°C for 20 min. To stop the oxidation reaction, 20 µL of 0.75 M NaAsO2 (sodium arsenite), which was dissolved in 0.5 M Na2SO4 and 0.05 M H2SO4, was immediately mixed. After 5 min of incubation at room temperature, one-third of the sample solution was transferred to a new tube to be mixed with 50 µL of 40 mM thiobarbituric acid and incubated at 99°C for 15 min in a thermal cycler. Developed pink chromophore was extracted by putting the final solutions with 600 µL of cyclohexanone in eight-strip solvent-resistant plastic tubes, mixing vigorously and centrifuging them at 4,500 × g for 3 min to separate water- and cyclohexanone-based layers. The absorbance of the pink supernatant was read at 549 nm with the microplate reader (Infinite 200 PRO, TECAN, Männedorf, Switzerland) to calculate DAHP production with the molar extinction coefficient at 549 nm (ε = 549 nm) of 4.5 × 10^4/M/cm. Reaction mixtures with boiled enzyme or without any substrates were run in parallel and used as negative controls to estimate the background signal for recombinant enzymes or enzymatic fraction from plant tissues, respectively.
(§2) For determination of kinetic parameters, the data of enzymatic activities measured in the presence of various concentration of substrates were calculated with the Michaelis–Menten equation in Graphpad Prism 6 (GraphPad Software, San Diego, CA, USA).

[4] = test system: carrot (Daucus carota) DHS; set-up: method as in Suzich et al., 1985; conditions: ref Suzich et al., 1985; cited from earlier work
[5] = test system: DHS activities from maize (Zea mays) shoots; set-up: method as in Graziana and Boudet, 1980; conditions: 1 mM; ref Graziana and Boudet, 1980; cited from earlier work
AthDHS2 = biological target: T1, AthDHS2 (Arabidopsis thaliana, UniProt Q00218); assay: DHS enzymatic activity assay with recombinant AthDHS2; type: biochemical; conditions: for IC50: varied effector concentrations, read-out: IC50 of AthDHS2 inhibition; for effect on AthDHS2 activity (in words): 1 mM effector
T1 construct: AthDHS2; residues 34–507; hexa-histidine; made in house; host or cells: E. coli Rosetta2 (DE3), pET28a
T1 sequence (Q00218 34-507): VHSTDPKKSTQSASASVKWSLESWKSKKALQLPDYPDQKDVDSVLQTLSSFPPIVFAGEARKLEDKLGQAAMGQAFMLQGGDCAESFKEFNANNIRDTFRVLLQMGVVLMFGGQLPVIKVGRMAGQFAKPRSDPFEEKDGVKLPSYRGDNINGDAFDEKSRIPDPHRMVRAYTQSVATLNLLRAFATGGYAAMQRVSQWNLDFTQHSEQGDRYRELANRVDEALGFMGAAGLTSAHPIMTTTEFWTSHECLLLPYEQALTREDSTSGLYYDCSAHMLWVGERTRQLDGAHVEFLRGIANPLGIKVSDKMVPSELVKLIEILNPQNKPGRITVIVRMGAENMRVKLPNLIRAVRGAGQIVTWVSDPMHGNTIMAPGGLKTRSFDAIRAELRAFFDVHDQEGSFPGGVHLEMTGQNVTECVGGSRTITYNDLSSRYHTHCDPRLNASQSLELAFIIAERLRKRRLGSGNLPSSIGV

AthDHS1 = biological target: T2, AthDHS1 (Arabidopsis thaliana, UniProt P29976); assay: DHS enzymatic activity assay with recombinant AthDHS1; type: biochemical; conditions: for effect on AthDHS1 activity (in words): 1 mM effector; for IC50: varied effector concentrations, read-out: IC50 of AthDHS1 inhibition
T2 construct: AthDHS1; residues 49–525; hexa-histidine; made in house; host or cells: E. coli Rosetta2 (DE3), pET28a
T2 sequence (P29976 49-525): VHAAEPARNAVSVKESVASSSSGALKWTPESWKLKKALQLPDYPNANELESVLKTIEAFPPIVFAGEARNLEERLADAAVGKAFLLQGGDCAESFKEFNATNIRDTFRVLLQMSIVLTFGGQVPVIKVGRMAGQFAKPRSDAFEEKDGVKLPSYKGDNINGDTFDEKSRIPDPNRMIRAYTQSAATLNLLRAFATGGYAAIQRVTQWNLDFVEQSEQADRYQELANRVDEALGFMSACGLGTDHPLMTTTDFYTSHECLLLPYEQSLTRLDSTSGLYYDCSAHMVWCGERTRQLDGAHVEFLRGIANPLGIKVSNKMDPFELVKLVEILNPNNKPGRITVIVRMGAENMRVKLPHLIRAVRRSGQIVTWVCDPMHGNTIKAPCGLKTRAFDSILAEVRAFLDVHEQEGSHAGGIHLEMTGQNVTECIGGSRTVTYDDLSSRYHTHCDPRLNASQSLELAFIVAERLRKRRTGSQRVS
Procedure: as §1, §2

[6] = test system: total DHS activity in spinach leaf extracts; assay: DHS activity assay of crude extracts from spinach mature leaves; type: biochemical, Spinacia oleracea; conditions: 1 mM
Procedure: (§3) Spinach (S. oleracea) leaves were purchased at a local grocery store. For de-etiolated spinach seedlings, spinach was germinated on the soil and grown in the dark for 3 days, followed by exposure to normal growth light for 1 day for de-etiolation. More than 20 g of fully expanded mature leaves or whole de-etiolated seedlings were harvested and ground to a fine powder in a mortar and pestle with liquid nitrogen. After dissolving in 100 mL extraction buffer (20 mM HEPES [pH 7.6], 1 mM DTT and 0.1% β-mercaptoethanol) and filtrating with Miracloth, the samples were centrifuged at 10,000 × g for 10 min and subsequently at 50,000 × g for 30 min. […] The concentrated solution was desalted twice by Sephadex G50 column size-exclusion chromatography (GE Healthcare) into 1 mL of 50 mM HEPES (pH 7.4) and quantified by the Bradford assay ([Bradford, 1976]). […]
(§4) Unless otherwise noted, DHS enzymatic activity was monitored as previously described ([Liu et al., 2008]), with several optimizations for high-throughput assays with eight-strip PCR tubes and a thermal cycler. […] The absorbance of the pink supernatant was read at 549 nm with the microplate reader (Infinite 200 PRO, TECAN, Männedorf, Switzerland) to calculate DAHP production with the molar extinction coefficient at 549 nm (ε = 549 nm) of 4.5 × 10^4/M/cm. […]

[7] = test system: total DHS activity in Arabidopsis leaf extracts; assay: DHS activity assay of crude extracts from Arabidopsis mature leaves; type: biochemical, Arabidopsis thaliana; conditions: 1 mM; Col-0
[8] = test system: DHS activity from the spinach seedling extracts; assay: DHS activity assay of crude extracts from de-etiolated spinach seedlings; type: biochemical, Spinacia oleracea; conditions: 1 mM
Procedure: as §3, §4

| SMILES | observed DHS activity of the enzyme mixtures versus theoretically calculated activity [3] | effect on AthDHS3 activity (in words) (AthDHS3) | IC50 (AthDHS2) [µM] | effect on AthDHS1 activity (in words) (AthDHS1) | effect on AthDHS2 activity (in words) (AthDHS2) | effect on total DHS activity of spinach mature leaf extract [6] | effect on total DHS activity of Arabidopsis mature leaf extract [7] | effect on DHS activity of de-etiolated spinach seedling extract [8] | IC50 (AthDHS1) [µM] | also measured |
| --- | --- | --- | --- | --- | --- | --- | --- | --- | --- | --- |
| O=C(O)CNCP(=O)(O)O [glyphosate] | – | – | – | – | – | – | – | – | – | increase of shikimate accumulation after treatment ([1]; dhs2): five-fold; increase of shikimate accumulation after treatment ([1]; other genotypes): two–three-fold; effect on shikimate levels ([1]; without Tyr, similar between genotypes): increased shikimate levels |
| N[C@@H](Cc1c[nH]c2ccccc12)C(=O)O [Trp, L-tryptophan] | significantly higher than theoretically calculated activities | activated | 225 | significantly activated | – | – | – | – | – | IC50 ([2]; read-out: IC50 of root growth impairment): 140 µM; IC50 ([2]; read-out: concentration giving 50% growth inhibition): > 300 µM; concentration that specifically impaired root growth ([2]; dhs3 mutant): ≥ 100 µM; effect on DHS activity [4]: activation; inhibition of DHS activity [5]: 50% |
| N[C@@H](Cc1ccccc1)C(=O)O [Phe, L-phenylalanine] | matched with the theoretical plot | did not significantly affect | – | did not significantly affect | did not significantly affect | – | – | – | – | IC50 ([2]; read-out: IC50 of root growth suppression): ~550 µM; concentration that suppressed root growth ([2]; all dhs mutants, similarly to Col-0): > 300 µM; effect of the added compound on Trp-mediated root growth inhibition of dhs3 ([2]; media with 300 µM Trp, AAAs added at 300 µM, shikimate at 500 µM): not recovered; effect of the added compound on Tyr-mediated root growth inhibition of dhs1 ([2]; media with 300 µM Tyr, AAAs added at 300 µM, shikimate at 500 µM): not sufficient; concentration beyond which AthDHS2 activity is slightly activated (AthDHS2; 1 µM to at least 5 mM tested): > 5 mM |
| C=C(O[C@@H]1C=C(C(=O)O)C=C[C@H]1O)C(=O)O [chorismate] | – | completely inhibited | 52.5 | completely inhibited | completely inhibited | more than half | more than half | significantly reduced | 97.3 | IC50 (AthDHS3; varied effector concentrations, read-out: IC50 of AthDHS3 inhibition): 83 µM |
| O=C(O)/C=C/c1ccc(O)c(O)c1 [caffeate] | – | completely inhibited | – | completely inhibited | – | more than half | more than half | significantly reduced | 49.7 | IC50 (AthDHS3): 53.4 µM |

From PMC8136874, “The entry reaction of the plant shikimate pathway is subjected to highly complex metabolite-mediated regulation” (The Plant Cell, 2021)
